What was measured:
[1] = in vivo; cited from earlier work
Bag-1 = Bag-1 level in LNCaP cells, SDS-PAGE immunoblot; type: cell-based; conditions: 100 μM, as early as two hours, FIG. 11B
SW260 (Colon) = assay: Cytotoxicity by MTT assay, SW260; type: cell-based; conditions: 72 h, three days continuous exposure
HCT-116 (Colon) = assay: Cytotoxicity by MTT assay, HCT-116; type: cell-based; conditions: Homo sapiens, 72 h, three days continuous exposure
MDA-MB-231 (Breast) = assay: Cytotoxicity by MTT assay, MDA-MB-231; type: cell-based; conditions: Homo sapiens, 72 h, three days continuous exposure
PC-3 (Prostate) = assay: Cytotoxicity by MTT assay, PC-3; type: cell-based; conditions: 72 h, three days continuous exposure
[2] = test system: normal peripheral blood lymphocytes (PBL); assay: Viability of normal peripheral blood lymphocytes, erythrocin B exclusion assay; type: cell-based, human; conditions: FIG. 1
Alva-31 (Prostate) = assay: Cytotoxicity by MTT assay, Alva-31; type: cell-based; conditions: 72 h, three days continuous exposure
Mcl-1 = Mcl-1 level in LNCaP cells, SDS-PAGE immunoblot; type: cell-based; conditions: 100 μM, as early as two hours, LNCaP; FIG. 11A
A549 (Lung) = assay: Cytotoxicity by MTT assay, A549; type: cell-based; conditions: Homo sapiens, 72 h, three days continuous exposure
normal B cells = assay: Viability of normal B lymphocytes (anti-CD19 staining, DiOC6 fluorescence); type: cell-based, human; conditions: 1.0 mM, 24 hours
Experimental: Then B lymphocytes were identified by staining with anti-CD19 antibody, and viability was assessed by DiOC6 fluorescence.

prostate cancer tissue = assay: Prostatectomy tissue samples incubated 72 hours, histology; type: cell-based
Excerpt: The tissues were next fixed in 4% paraformaldehyde in PBS, embedded in paraffin, sectioned and stained with hematoxylin and eosin.

LNCaP-FGC (Prostate) = assay: Cytotoxicity by MTT assay, LNCaP-FGC; type: cell-based; conditions: 72 h, three days continuous exposure
CLL cells [3] = assay: Viability of CLL cells, erythrocin B exclusion assay
OVCAR-3 (Ovarian) = assay: Cytotoxicity by MTT assay, OVCAR-3; type: cell-based; conditions: Homo sapiens, 72 h, three days continuous exposure
CLL cells [4] = assay: Viability of CLL cells taken from patients before and after oral etodolac; type: in vivo, human; conditions: for in vitro survival of CLL cells after treatment compared to before treatment: 400 mg tablet, second tablet 12 hours later
Experimental: The circles show CLL cells before etodolac treatment. In FIGS. 6-7, the upward pointing triangles represent CLL cell viability after etodolac treatment, wherein the cells are dispersed in medium containing the pretreatment plasma. The downward pointing triangles are CLL cells after treatment maintained in medium with the post-treatment plasma. […] Cells were analyzed within 30 minutes in a Becton Dickinson FAC-Scalibur cytofluorometer. After suitable comprehension, fluorescence was recorded at different wavelength: DiOC6 and DHR at 525 nm (Fl-1) and PI at 600 nm (FL-3).

Bcl-2 and Bax = Bcl-2 and Bax levels after etodolac incubation; type: cell-based; conditions: data not shown

In the case of `CCc1cccc2c3c([nH]c12)C(CC)(CC(=O)O)OCC3` (racemic) [etodolac, 1,8-Diethyl-1,3,4,9-tetrahydropyrano[3,4-b]indole-1-acetic acid], the elimination half-life [1] is listed as 6 to 8 h, the Bag-1 levels (Bag-1) is listed as “fell” and the IC50 (SW260 (Colon)) is listed as 1000 ± 120 µM. It also gave an IC50 (HCT-116 (Colon)) of 450 ± 15 µM, an IC50 (MDA-MB-231 (Breast)) of over 1000 µM and an IC50 (PC-3 (Prostate)) of 340 ± 20 µM. The “concentration at which significant death of normal PBLs occurred” value [2] was 800 µM, the IC50 (Alva-31 (Prostate)) was over 1000 µM and the Mcl-1 levels (Mcl-1) was “fell”. For the same compound, the IC50 (A549 (Lung)) was over 1000 µM, the “viability of normal B cells compared to control cultures” value (normal B cells) was “did not reduce the viability” and the “activity in prostatectomy samples” value (prostate cancer tissue) was “active”. For the same compound, the “effect on normal basal cells in prostatectomy samples” value (prostate cancer tissue) was “did not affect normal basal cells”, the “toxicity to tumor cells in prostatectomy samples” value (prostate cancer tissue; FIG. 15) was “selectively toxic to the tumor cells” and the IC50 (LNCaP-FGC (Prostate)) was 400 ± 35 µM. For the same compound, the CLL cells killed (CLL cells [3]; 200 μM, 48 hour exposure, FIG. 2) was 50%, the “cytotoxic effect on CLL cells, either drug alone” value (CLL cells [3]; fludarabine 10 nM or etodolac 10 μM alone, 48 hours, FIG. 3) was “ineffective” and the IC50 (OVCAR-3 (Ovarian)) was over 1000 µM. For the same compound, the “in vitro survival of CLL cells after treatment compared to before treatment” value (CLL cells [4]; patient one, FIG. 7) was “less dramatic but similar effect”, the “in vitro survival of CLL cells after treatment compared to before treatment” value (CLL cells [4]; patient two, FIG. 6) was “shortened survival” and the “cell death by apoptosis (DiOC6 staining, dots in left lower box) after versus before treatment” value (CLL cells [4]; patient two, detectable at 12 hours, increases after 24 hours, FIG. 8) was “much higher”. The “Bcl-2 and Bax levels” value (Bcl-2 and Bax) was “did not alter”.
